Results published in PubChem BioAssay AID1259407 (Chemical Carcinogenesis Research Information System (CCRIS), 2018).
Calls of active or inactive are those of the source. No rule for the calls is given here.

System: CCRIS mutagenicity, Ames/micronucleus/aberration tests
Assay: CCRIS mutagenicity studies
[1] = Test System: AMES SALMONELLA TYPHIMURIUM, Strain/Indicator: TA98, Metabolic Activation: NONE, Method: STANDARD PLATE
[2] = Test System: AMES SALMONELLA TYPHIMURIUM, Strain/Indicator: TA100, Metabolic Activation: NONE, Method: STANDARD PLATE

## CC1(C)CON(Cc2ccccc2Cl)C1=O
End Point: In vivo chromosomal aberrations, Test System: Bone marrow, Species: Rat, Strain/Sex: Sprague-Dawley/Male, Route: Gavage
  mutagenic call: inactive; negative (purity 88.8%)
Test System: Ames Salmonella typhimurium, Strain/Indicator: TA98, Metabolic Activation: None, Method: Standard Plate
  mutagenic call: inactive; negative (purity 92.4%)
Test System: Ames Salmonella typhimurium, Strain/Indicator: TA98, Metabolic Activation: Rat, liver, S-9, Aroclor 1254, Method: Standard Plate
  mutagenic call: inactive; negative (purity 92.4%)
Test System: Ames Salmonella typhimurium, Strain/Indicator: TA100, Metabolic Activation: None, Method: Standard Plate
  mutagenic call: inactive; negative (purity 92.4%)
Test System: Ames Salmonella typhimurium, Strain/Indicator: TA100, Metabolic Activation: Rat, liver, S-9, Aroclor 1254, Method: Standard Plate
  mutagenic call: inactive; negative (purity 92.4%)
Test System: Ames Salmonella typhimurium, Strain/Indicator: TA1535, Metabolic Activation: None, Method: Standard Plate
  mutagenic call: inactive; negative (purity 92.4%)
Test System: Ames Salmonella typhimurium, Strain/Indicator: TA1535, Metabolic Activation: Rat, liver, S-9, Aroclor 1254, Method: Standard Plate
  mutagenic call: inactive; negative (purity 92.4%)
Test System: Ames Salmonella typhimurium, Strain/Indicator: TA1537, Metabolic Activation: None, Method: Standard Plate
  mutagenic call: inactive; negative (purity 92.4%)
Test System: Ames Salmonella typhimurium, Strain/Indicator: TA1537, Metabolic Activation: Rat, liver, S-9, Aroclor 1254, Method: Standard Plate
  mutagenic call: inactive; negative (purity 92.4%)
Test System: Ames Salmonella typhimurium, Strain/Indicator: TA1538, Metabolic Activation: None, Method: Standard Plate
  mutagenic call: inactive; negative (purity 92.4%)
Test System: Ames Salmonella typhimurium, Strain/Indicator: TA1538, Metabolic Activation: Rat, liver, S-9, Aroclor 1254, Method: Standard Plate
  mutagenic call: inactive; negative (purity 92.4%)
Test System: UDS Rat hepatocytes, Strain/Indicator: Thymidine incorporation, Metabolic Activation: None, Method: Autoradiography
  mutagenic call: inactive; negative (purity 88.8%)

## CC1(C)C(=O)[C@]2(C)CC[C@H]1C2
Test System: AMES SALMONELLA TYPHIMURIUM, Strain/Indicator: TA98, Metabolic Activation: HAMSTER, LIVER, S-9, AROCLOR 1254, Method: STANDARD PLATE
  mutagenic call: inactive; negative
[1]
  mutagenic call: inactive; negative
Test System: AMES SALMONELLA TYPHIMURIUM, Strain/Indicator: TA98, Metabolic Activation: RAT, LIVER, S-9, AROCLOR 1254, Method: STANDARD PLATE
  mutagenic call: inactive; negative
Test System: AMES SALMONELLA TYPHIMURIUM, Strain/Indicator: TA100, Metabolic Activation: HAMSTER, LIVER, S-9, AROCLOR 1254, Method: STANDARD PLATE
  mutagenic call: inactive; negative
[2]
  mutagenic call: inactive; negative
Test System: AMES SALMONELLA TYPHIMURIUM, Strain/Indicator: TA100, Metabolic Activation: RAT, LIVER, S-9, AROCLOR 1254, Method: STANDARD PLATE
  mutagenic call: inactive; negative
Test System: AMES SALMONELLA TYPHIMURIUM, Strain/Indicator: TA102, Metabolic Activation: HAMSTER, LIVER, S-9, AROCLOR 1254, Method: STANDARD PLATE
  mutagenic call: inactive; negative
Test System: AMES SALMONELLA TYPHIMURIUM, Strain/Indicator: TA102, Metabolic Activation: NONE, Method: STANDARD PLATE
  mutagenic call: inactive; negative
Test System: AMES SALMONELLA TYPHIMURIUM, Strain/Indicator: TA102, Metabolic Activation: RAT, LIVER, S-9, AROCLOR 1254, Method: STANDARD PLATE
  mutagenic call: inactive; negative
Test System: AMES SALMONELLA TYPHIMURIUM, Strain/Indicator: TA1535, Metabolic Activation: HAMSTER, LIVER, S-9, AROCLOR 1254, Method: STANDARD PLATE
  mutagenic call: inactive; negative
Test System: AMES SALMONELLA TYPHIMURIUM, Strain/Indicator: TA1535, Metabolic Activation: NONE, Method: STANDARD PLATE
  mutagenic call: inactive; negative
Test System: AMES SALMONELLA TYPHIMURIUM, Strain/Indicator: TA1535, Metabolic Activation: RAT, LIVER, S-9, AROCLOR 1254, Method: STANDARD PLATE
  mutagenic call: inactive; negative
Test System: AMES SALMONELLA TYPHIMURIUM, Strain/Indicator: TA1537, Metabolic Activation: HAMSTER, LIVER, S-9, AROCLOR 1254, Method: STANDARD PLATE
  mutagenic call: inactive; negative
Test System: AMES SALMONELLA TYPHIMURIUM, Strain/Indicator: TA1537, Metabolic Activation: NONE, Method: STANDARD PLATE
  mutagenic call: inactive; negative
Test System: AMES SALMONELLA TYPHIMURIUM, Strain/Indicator: TA1537, Metabolic Activation: RAT, LIVER, S-9, AROCLOR 1254, Method: STANDARD PLATE
  mutagenic call: inactive; negative
Test System: Mouse lymphoma, Strain/Indicator: L5178Y (tk+/tk-), Metabolic Activation: None, Method: Suspension/plate
  mutagenic call: inactive; negative
Test System: Mouse lymphoma, Strain/Indicator: L5178Y (tk+/tk-), Metabolic Activation: Rat, Liver, S-9, Aroclor 1254, Method: Suspension/plate
  mutagenic call: active; positive

## O=C(O)COc1ccc(C(=O)c2cccs2)c(Cl)c1Cl
Test System: AMES SALMONELLA TYPHIMURIUM, Strain/Indicator: TA100(FR1), Metabolic Activation: NONE, Method: STANDARD PLATE
  mutagenic call: inactive; negative
Test System: AMES SALMONELLA TYPHIMURIUM, Strain/Indicator: TA100(FR1), Metabolic Activation: RAT, LIVER, S-9, PHENOBARBITAL AND 3-METHYLCHOLANTHRENE, Method: STANDARD PLATE
  mutagenic call: inactive; negative
[2]
  mutagenic call: inactive; negative
Test System: AMES SALMONELLA TYPHIMURIUM, Strain/Indicator: TA100, Metabolic Activation: RAT, LIVER, S-9, PHENOBARBITAL AND 3-METHYLCHOLANTHRENE, Method: STANDARD PLATE
  mutagenic call: inactive; negative
Test System: CHINESE HAMSTER V-79, Strain/Indicator: V-79/6-THIOGUANINE, Metabolic Activation: NONE
  mutagenic call: inactive; negative
Test System: CHINESE HAMSTER V-79, Strain/Indicator: V-79/6-THIOGUANINE, Metabolic Activation: RAT, LIVER, HEPATOCYTES (SHERMAN OR SPRAGUE-DAWLEY RATS)
  mutagenic call: inactive; negative
Test System: CHINESE HAMSTER V-79, Strain/Indicator: V-79/OUABAIN, Metabolic Activation: NONE
  mutagenic call: active; positive
Test System: CHINESE HAMSTER V-79, Strain/Indicator: V-79/OUABAIN, Metabolic Activation: RAT, LIVER, HEPATOCYTES (SHERMAN OR SPRAGUE-DAWLEY RATS)
  mutagenic call: active; positive

## CCCCCCCCCCCC[N+](C)(C)COCCCCCCCC
Test System: BACILLUS SUBTILIS, Strain/Indicator: H17/REC, Metabolic Activation: NONE, Method: STANDARD PLATE
  mutagenic call: inactive; negative
Test System: BACILLUS SUBTILIS, Strain/Indicator: M45, Metabolic Activation: NONE, Method: STANDARD PLATE
  mutagenic call: inactive; negative

## O=C(Nc1ccc(Br)cc1)c1csc([N+](=O)[O-])c1
[1]
  mutagenic call: active; positive
[2]
  mutagenic call: active; positive
